Data from patent publication US8124582B2, “Treatment of diabetes” (FibroGen, Inc., priority 2002, dated 2012).

How the values were obtained:
[1] = Blood glucose levels after 14 days oral dosing; assay type: in vivo, male Sprague Dawley rats; details: rats, 20, 60, 100, or 200 mg/kg oral gavage once daily for 14 days, overnight fast, day 15; FIG. 4
Procedure: The effect of compound administration on blood glucose levels was examined as follows. Fifty male Sprague Dawley rats (6-7 weeks old) obtained from Simonsen, Inc. were dosed with 0.5% CMC (Sigma-Aldrich) or compound B at 20, 60, 100, or 200 mg/kg body weight by oral gavage once daily for 14 consecutive days. Animals were monitored for changes in body weight and signs of overt toxicity and mortality. […] One sample of approximately 1 ml was collected into tubes containing EDTA for hematological analysis, and a second sample of approximately 1 ml was collected into a tube with no anticoagulant for serum chemistry analysis. Blood sample analyses were performed by IDEXX (West Sacramento, Calif.).

[2] = Body weight gain, organ weight and visceral fat after 14 days oral dosing; assay type: in vivo, male Sprague Dawley rats
Procedure: The effect of compounds of the present invention on weight loss and fat stores in animals was examined as follows. Fifty male Sprague Dawley rats (6-7 weeks old) obtained from Simonsen, Inc. were dosed with 0.5% CMC (Sigma-Aldrich) or compound B at 20, 60, 100, or 200 mg/kg body weight by oral gavage once daily for 14 consecutive days. Animals were monitored for changes in body weight and signs of overt toxicity and mortality. On day 15, following an overnight fast with water available ad libitum, animals were anesthetized with isoflurane. One whole blood sample of approximately 1 ml was collected into tubes containing EDTA for hematological analysis, and a second sample of approximately 1 ml was collected into a tube with no anticoagulant for serum chemistry analysis. Blood sample analyses were performed by IDEXX (West Sacramento, Calif.). Following blood collection, the diaphragm was incised and the animals were sacrificed. Macroscopic observations were recorded for each animal and the liver, kidneys, heart, spleen, lungs, stomach, small intestines, and large intestines were collected for histological assessment.

O=C(O)CNC(=O)c1nc(Cl)c2ccccc2c1O [compound B, [(1-Chloro4-hydroxy-isoquinoline-3-carbonyl)-amino]-acetic acid]
blood glucose levels [1]: dose-dependent decrease | relative heart weight, expressed as a fraction of the total body weight, compared to control ([2]; rats, 100 mg/kg, p=0.036, one-way ANOVA/Tukey's test): significantly increased | weight gain ([2]; rats, 20, 60, 100, or 200 mg/kg oral gavage once daily for 14 days, FIG. 7A): dose-dependent retardation | visceral fat ([2]; rats, 20 to 200 mg/kg oral gavage 14 days, FIG. 8): dose-dependent reduction | visceral fat pads at higher doses ([2]; rats, higher doses of compound, FIG. 8 bottom panel): complete absence of fat pads | absolute heart weight compared to control ([2]; rats, oral gavage 14 days, FIG. 7B): no statistically significant difference
